Data published in patent US9604933B2, “Pyrazolochalcones as potential anticancer agents” (COUNCIL OF SCIENTIFIC AND INDUSTRIAL RESEARCH, priority 2013, dated 2017).

Columns and labels:
NCI-H460 = assay: NCI SRB cytotoxicity, non-small cell lung NCI-H460; type: cell-based; conditions: Homo sapiens, 48 h exposure
Procedure: (§1) The pyrazolochalcones (7e, 8e, 10e, 11e, 12e, 13e and 8f) have been tested against fifty nine human tumor cell lines derived from nine cancer types (leukemia, non-small cell lung cancer, colon cancer, CNS cancer, melanoma, ovarian cancer, renal cancer, prostate cancer and breast cancer) as per the NCI protocol. For each compound, dose response curves for individual cell lines have been measured at a minimum of five concentrations at 10 fold dilutions. A protocol of 48 h continuous drug exposure has been used, and a sulforhodamine B (SRB) protein assay has been used to estimate cell viability or growth. The concentration for 50% cell growth inhibition (GI50), 50% cell death (LC50, 50% growth) and total cell growth inhibition (TGI, 0% growth) values were tabulated (Table-1). DMSO was used as control to calculate the values of GI50, LC50 and TGI. The compounds 7e, 8e, 10e, 11e, 12e, 13e and 8f has been evaluated for their in vitro cytotoxicity in […] cell lines from nine human cancer types of leukemia (K-562, SR), non-small cell lung (Hop-62, NCI-H226, NCI-H522), colon (HCT-116, HCT-15, HCC-2998), CNS (SF-539), melanoma (SK-MEL-5, UACC-62, M14), ovarian (IGROV1), renal (A498), prostate (PC3) and breast (BT-549, MDA-MB-435, HS578T) origin. The results are expressed as percent of cell growth determined relative to that of untreated control cells (Table 2).

Renal = assay: NCI SRB cytotoxicity, renal panel average; type: cell-based, human; conditions: average of cell lines; for CC50: read-out: Log10 LC50 (concentration in mol/L causing 50% cell death) (converted)
Procedure: as §1
(§2) Each cancer type represents the average of six to eight different cancer cell lines.

Ovarian = assay: NCI SRB cytotoxicity, ovarian panel average; type: cell-based, human; conditions: average of cell lines; for CC50: read-out: Log10 LC50 (concentration in mol/L causing 50% cell death) (converted)
Procedure: as §1, §2

NCI-H226 = assay: NCI SRB cytotoxicity, non-small cell lung NCI-H226; type: cell-based; conditions: Homo sapiens, 48 h exposure
Procedure: as §1

HCC-2998 = assay: NCI SRB cytotoxicity, colon HCC-2998; type: cell-based; conditions: Homo sapiens, 48 h exposure
Procedure: as §1

SW-620 = assay: NCI SRB cytotoxicity, colon SW-620; type: cell-based; conditions: Homo sapiens, 48 h exposure
Procedure: as §1

SK-MEL-5 = assay: NCI SRB cytotoxicity, melanoma SK-MEL-5; type: cell-based; conditions: Homo sapiens, 48 h exposure
Procedure: as §1

T-47D = assay: NCI SRB cytotoxicity, breast T-47D; type: cell-based; conditions: Homo sapiens, T47D, 48 h exposure
Procedure: as §1

Leukemia = assay: NCI SRB cytotoxicity, leukemia panel average; type: cell-based, human; conditions: average of cell lines; for CC50: read-out: Log10 LC50 (concentration in mol/L causing 50% cell death) (converted)
Procedure: as §1, §2

OVCAR-3 = assay: NCI SRB cytotoxicity, ovarian OVCAR-3; type: cell-based; conditions: Homo sapiens, 48 h exposure
Procedure: as §1

SR = assay: NCI SRB cytotoxicity, leukemia SR; type: cell-based; conditions: Homo sapiens, 48 h exposure
Procedure: as §1

MDA-MB-231/ATCC = assay: NCI SRB cytotoxicity, breast MDA-MB-231/ATCC; type: cell-based; conditions: Homo sapiens, 48 h exposure
Procedure: as §1

PC-3 = assay: NCI SRB cytotoxicity, prostate PC-3; type: cell-based; conditions: Homo sapiens, 48 h exposure
Procedure: as §1

SK-MEL-28 = assay: NCI SRB cytotoxicity, melanoma SK-MEL-28; type: cell-based; conditions: Homo sapiens, 48 h exposure
Procedure: as §1

HL-60(TB) = assay: NCI SRB cytotoxicity, leukemia HL-60(TB); type: cell-based; conditions: Homo sapiens, 48 h exposure
Procedure: as §1

TK-10 = assay: NCI SRB cytotoxicity, renal TK-10; type: cell-based; conditions: Homo sapiens, 48 h exposure
Procedure: as §1

HCT-15 = assay: NCI SRB cytotoxicity, colon HCT-15; type: cell-based; conditions: Homo sapiens, 48 h exposure
Procedure: as §1

OVCAR-5 = assay: NCI SRB cytotoxicity, ovarian OVCAR-5; type: cell-based; conditions: Homo sapiens, 48 h exposure
Procedure: as §1

MDA-MB-435 = assay: NCI SRB cytotoxicity, breast panel MDA-MB-435; type: cell-based; conditions: Homo sapiens, 48 h exposure
Procedure: as §1

M14 = assay: NCI SRB cytotoxicity, melanoma M14; type: cell-based; conditions: Homo sapiens, 48 h exposure
Procedure: as §1

CCRF-CEM = assay: NCI SRB cytotoxicity, leukemia CCRF-CEM; type: cell-based; conditions: Homo sapiens, 48 h exposure
Procedure: as §1

Prostate = assay: NCI SRB cytotoxicity, prostate panel average; type: cell-based, human; conditions: average of cell lines; for CC50: read-out: Log10 LC50 (concentration in mol/L causing 50% cell death) (converted)
Procedure: as §1, §2

UACC-257 = assay: NCI SRB cytotoxicity, melanoma UACC-257; type: cell-based; conditions: Homo sapiens, 48 h exposure
Procedure: as §1

RXF 393 = assay: NCI SRB cytotoxicity, renal RXF 393; type: cell-based; conditions: Homo sapiens, 48 h exposure
Procedure: as §1

COLO-205 = assay: NCI SRB cytotoxicity, colon COLO-205; type: cell-based; conditions: Homo sapiens, 48 h exposure
Procedure: as §1

HS 578T = assay: NCI SRB cytotoxicity, breast HS 578T; type: cell-based; conditions: Homo sapiens, 48 h exposure
Procedure: as §1

SK-OV-3 = assay: NCI SRB cytotoxicity, ovarian SK-OV-3; type: cell-based; conditions: Homo sapiens, 48 h exposure
Procedure: as §1

NCI-H23 = assay: NCI SRB cytotoxicity, non-small cell lung NCI-H23; type: cell-based; conditions: Homo sapiens, 48 h exposure
Procedure: as §1

786-0 = assay: NCI SRB cytotoxicity, renal 786-0; type: cell-based; conditions: Homo sapiens, 48 h exposure
Procedure: as §1

MOLT-4 = assay: NCI SRB cytotoxicity, leukemia MOLT-4; type: cell-based; conditions: Homo sapiens, 48 h exposure
Procedure: as §1

A498 = assay: NCI SRB cytotoxicity, renal A498; type: cell-based; conditions: Homo sapiens, 48 h exposure
Procedure: as §1

SF-268 = assay: NCI SRB cytotoxicity, CNS SF-268; type: cell-based; conditions: Homo sapiens, 48 h exposure
Procedure: as §1

ACHN = assay: NCI SRB cytotoxicity, renal ACHN; type: cell-based; conditions: Homo sapiens, 48 h exposure
Procedure: as §1

Breast = assay: NCI SRB cytotoxicity, breast panel average; type: cell-based, human; conditions: average of cell lines; for CC50: read-out: Log10 LC50 (concentration in mol/L causing 50% cell death) (converted)
Procedure: as §1, §2

CAKI-1 = assay: NCI SRB cytotoxicity, renal CAKI-1; type: cell-based; conditions: Homo sapiens, 48 h exposure
Procedure: as §1

MCF7 = assay: NCI SRB cytotoxicity, breast MCF7; type: cell-based; conditions: Homo sapiens, 48 h exposure
Procedure: as §1

NCI-H522 = assay: NCI SRB cytotoxicity, non-small cell lung NCI-H522; type: cell-based; conditions: Homo sapiens, 48 h exposure
Procedure: as §1

BT-549 = assay: NCI SRB cytotoxicity, breast BT-549; type: cell-based; conditions: Homo sapiens, 48 h exposure
Procedure: as §1

SNB-75 = assay: NCI SRB cytotoxicity, CNS SNB-75; type: cell-based; conditions: Homo sapiens, 48 h exposure
Procedure: as §1

A549/ATCC = assay: NCI SRB cytotoxicity, non-small cell lung A549/ATCC; type: cell-based; conditions: Homo sapiens, 48 h exposure
Procedure: as §1

[1] = Homo sapiens, read-out: Log10 GI50 (concentration in mol/L causing 50% growth inhibition) (converted)

SMILES: COc1cc(-c2cc(/C=C/C(=O)c3ccc(Cl)c(Cl)c3)[nH]n2)cc(OC)c1OC [12e, (E)-1-(3,4-dichlorophenyl)-3-(3-(3,4,5-trimethoxyphenyl)-1H-pyrazol-5-yl)prop-2-en-1-one]
- GI50 (NCI-H460): 4.9 µM
- GI50 (Renal; [1]): 8.91 µM
- CC50 (Renal; Homo sapiens): 93.3 µM
- Log10 TGI (concentration in mol/L causing total growth inhibition (0% growth)) (Renal): −4.22 mol/L
- GI50 (Ovarian; [1]): 10 µM
- CC50 (Ovarian; Homo sapiens): 95.5 µM
- Log10 TGI (concentration in mol/L causing total growth inhibition (0% growth)) (Ovarian): −4.27 mol/L
- GI50 (NCI-H226): 18.6 µM
- GI50 (HCC-2998): 9.56 µM
- GI50 (SW-620): 8.63 µM
- GI50 (SK-MEL-5): 13.4 µM
- GI50 (T-47D): 1.66 µM
- GI50 (Leukemia; [1]): 2.09 µM
- CC50 (Leukemia; Homo sapiens): 0.0001 mol/L
- Log10 TGI (concentration in mol/L causing total growth inhibition (0% growth)) (Leukemia): −4.61 mol/L
- GI50 (OVCAR-3): 6.99 µM
- GI50 (SR): 0.39 µM
- GI50 (MDA-MB-231/ATCC): 8.65 µM
- GI50 (PC-3): 5.95 µM
- GI50 (SK-MEL-28): 18.5 µM
- GI50 (HL-60(TB)): 7.18 µM
- GI50 (TK-10): 8.34 µM
- GI50 (HCT-15): 4.29 µM
- GI50 (OVCAR-5): 20.5 µM
- GI50 (MDA-MB-435): 1.98 µM
- GI50 (M14): 18.2 µM
- GI50 (CCRF-CEM): 2.15 µM
- GI50 (Prostate; [1]): 5.89 µM
- CC50 (Prostate; Homo sapiens): 100 µM
- Log10 TGI (concentration in mol/L causing total growth inhibition (0% growth)) (Prostate): −4.00 mol/L
- GI50 (UACC-257): 16.3 µM
- GI50 (RXF 393): 2.7 µM
- GI50 (COLO-205): 1.26 µM
- GI50 (HS 578T): 16.6 µM
- GI50 (SK-OV-3): 4.19 µM
- GI50 (NCI-H23): 23.4 µM
- GI50 (786-0): 10.1 µM
- GI50 (MOLT-4): 4.38 µM
- GI50 (A498): 5.89 µM
- GI50 (SF-268): 13.7 µM
- GI50 (ACHN): 21.4 µM
- GI50 (Breast; [1]): 4.47 µM
- CC50 (Breast; Homo sapiens): 100 µM
- Log10 TGI (concentration in mol/L causing total growth inhibition (0% growth)) (Breast): −4.41 mol/L
- GI50 (CAKI-1): 16.9 µM
- GI50 (MCF7): 1.8 µM
- GI50 (NCI-H522): 1.33 µM
- GI50 (BT-549): 8.4 µM
- GI50 (SNB-75): 8.7 µM
- GI50 (A549/ATCC): 18.7 µM

SMILES: COc1ccc(C(=O)/C=C/c2cc(-c3ccc4c(c3)OCO4)n[nH]2)cc1OC [8f, (E)-3-(3-(benzo[d][1,3]dioxol-5-yl)-1H-pyrazol-5-yl)-1-(3,4-dimethoxyphenyl)prop-2-en-1-one]
- GI50 (NCI-H460): 1.81 µM
- CC50 (Renal; Homo sapiens): 32.4 µM
- Log10 GI50 (concentration in mol/L causing 50% growth inhibition) (Renal): −5.46 mol/L
- Log10 TGI (concentration in mol/L causing total growth inhibition (0% growth)) (Renal): −5.01 mol/L
- CC50 (Ovarian; Homo sapiens): 52.5 µM
- Log10 GI50 (concentration in mol/L causing 50% growth inhibition) (Ovarian): −5.58 mol/L
- Log10 TGI (concentration in mol/L causing total growth inhibition (0% growth)) (Ovarian): −4.87 mol/L
- GI50 (NCI-H226): 3.4 µM
- GI50 (HCC-2998): 4.99 µM
- GI50 (SW-620): 2.05 µM
- GI50 (SK-MEL-5): 6.74 µM
- GI50 (T-47D): 3.2 µM
- CC50 (Leukemia; Homo sapiens): 0.0001 mol/L
- Log10 GI50 (concentration in mol/L causing 50% growth inhibition) (Leukemia): −5.69 mol/L
- Log10 TGI (concentration in mol/L causing total growth inhibition (0% growth)) (Leukemia): −5.03 mol/L
- GI50 (OVCAR-3): 2.02 µM
- GI50 (SR): 1.27 µM
- GI50 (MDA-MB-231/ATCC): 2.4 µM
- GI50 (PC-3): 2.5 µM
- GI50 (SK-MEL-28): 5.76 µM
- GI50 (HL-60(TB)): 2.82 µM
- GI50 (TK-10): 2.8 µM
- GI50 (HCT-15): 2.81 µM
- GI50 (OVCAR-5): 3.36 µM
- GI50 (MDA-MB-435): 1.8 µM
- GI50 (M14): 6.36 µM
- GI50 (CCRF-CEM): 2.52 µM
- CC50 (Prostate; Homo sapiens): 31.6 µM
- Log10 GI50 (concentration in mol/L causing 50% growth inhibition) (Prostate): −5.66 mol/L
- Log10 TGI (concentration in mol/L causing total growth inhibition (0% growth)) (Prostate): −5.05 mol/L
- GI50 (UACC-257): 7.06 µM
- GI50 (RXF 393): 2.42 µM
- GI50 (COLO-205): 3.84 µM
- GI50 (HS 578T): 2.6 µM
- GI50 (SK-OV-3): 3.97 µM
- GI50 (NCI-H23): 4.12 µM
- GI50 (786-0): 3.12 µM
- GI50 (MOLT-4): 3 µM
- GI50 (A498): 1.55 µM
- GI50 (SF-268): 2.53 µM
- GI50 (ACHN): 3.49 µM
- CC50 (Breast; Homo sapiens): 39.8 µM
- Log10 GI50 (concentration in mol/L causing 50% growth inhibition) (Breast): −4.76 mol/L
- Log10 TGI (concentration in mol/L causing total growth inhibition (0% growth)) (Breast): −5.05 mol/L
- GI50 (CAKI-1): 1.9 µM
- GI50 (MCF7): 3.2 µM
- GI50 (NCI-H522): 1.82 µM
- GI50 (BT-549): 1.9 µM
- GI50 (SNB-75): 1.98 µM
- GI50 (A549/ATCC): 2.7 µM
